# From ChEMBL document CHEMBL5236615, “Discovery of Novel N-Heterocyclic-Fused Deoxypodophyllotoxin Analogues as Tubulin Polymerization Inhibitors Targeting the Colchicine-Binding Site for Cancer Treatment” (J Med Chem, 2022)
# Activity calls are given as the source filed them. The rule behind the calls is not given here.
# How the values were obtained:
# [1] = test system: K562; test: cells; details: Homo sapiens, K562, 72 h
# Description: Antiproliferative activity against human K562 cells measured after 72 hrs by MTT assay
# [2] = test system: MCF7; test: cells; details: Homo sapiens, MCF7, 72 h
# Description: Antiproliferative activity against human MCF7 cells measured after 72 hrs by MTT assay
# [3] = test system: HCT-116; test: Antiproliferative activity against human HCT-116 cells measured after 72 hrs by MTT assay; type: functional, cell-based; details: HCT-116, 72 h
# [4] = test system: HT-29; test: Antiproliferative activity against human HT-29 cells measured after 72 hrs by MTT assay; type: functional, cell-based; details: HT-29, 72 h
# [5] = biological target: Tubulin beta (Homo sapiens) (UniProt P68371+Q9H4B7+Q13509+P04350+Q3ZCM7+P07437+Q13885+Q9BVA1+Q9BUF5+A6NNZ2); test: Binding affinity to beta-tubulin colchicine binding site in human MCF-7 cells assessed as inhibition of EBI-beta-tubulin adduct band formation preincubated for 2 hrs followed by EBI addition and measured after 1.5 hrs by EBI competition based Western blotting analysis; type: cell-based; details: MCF7, dose 0.2-25 µM, time 3.5 hrs
# [6] = Antiproliferative activity against paclitaxel-resistant human A549/TxR cells measured after 72 hrs by MTT assay; type: functional, cell-based
# [7] = Antiproliferative activity against paclitaxel-resistant human MCF7/TxR cells measured after 72 hrs by MTT assay; type: functional, cell-based
# [8] = biological target: Tubulin (Homo sapiens) (UniProt P68371+Q9H4B7+P0DPH7+P68366+Q13509+Q71U36+P04350+Q3ZCM7+P07437+P68363+Q9BQE3+Q6PEY2+Q13885+Q9BVA1+Q9BUF5); test: Disruption of microtubule network in human MCF7 cells assessed as broken microtubule filaments at 20 nM measured after 6 hrs by immunofluorescence assay; type: cell-based
# [9] = Metabolic stability in human liver microsomes assessed as half life at 1 uM by LC/MS analysis; type: ADME, Microsome
# [10] = Metabolic stability in human liver microsomes assessed as intrinsic clearance at 1 uM by LC/MS analysis; type: ADME, Microsome; details: read-out: CLH
SMILES,IC50 [1],IC50 [2],IC50 [3],IC50 [4],Activity [5],IC50 [6],IC50 [7],Activity [8],half-life at 1 µM [9],CLint scaled at 1 µM [10]
O=C1OC[C@@H]2Cc3cc4c(cc3[C@@H](c3ccc(OC(F)F)c(OC(F)F)c3)N12)OCCO4,316 nM,265 nM,918 nM,74.8 nM,–,–,–,–,–,–
CCN1C(=O)[C@@H]2Cc3cc4c(cc3[C@@H](c3cc(OC)c(OC)c(OC)c3)N2C1=S)OCO4,> 5000 nM,> 5000 nM,> 5000 nM,> 5000 nM,–,–,–,–,–,–
COc1cc2c(cc1OC)[C@@H](c1cc(OC)c(OC)c(OC)c1)N1C(=O)OC[C@@H]1C2,> 5000 nM,> 5000 nM,> 5000 nM,> 5000 nM,–,–,–,–,–,–
COc1cc([C@@H]2c3cc4c(cc3C[C@H]3COC(=O)N32)OCO4)cc2c1OCO2,72.3 nM,149 nM,56.6 nM,212 nM,–,–,–,–,–,–
COc1cc([C@@H]2c3cc4c(cc3C[C@H]3COC(=O)N32)OCCO4)ccc1F,154 nM,376 nM,273 nM,63.4 nM,–,–,–,–,–,–
CCN1C(=O)[C@@H]2Cc3cc4c(cc3[C@@H](c3cc(OC)c(OC)c(OC)c3)N2C1=O)OCO4,> 5000 nM,> 5000 nM,> 5000 nM,> 5000 nM,–,–,–,–,–,–
COc1cc([C@@H]2c3cc4c(cc3C[C@H]3C(=O)NC(=O)N23)OCO4)cc(OC)c1OC,44.9 nM,125 nM,64.3 nM,49.1 nM,–,–,–,–,–,–
CCN1C(=O)[C@@H]2Cc3cc4c(cc3[C@@H](c3cc(OC)c(OC)c(OC)c3)N2C1=O)OCCO4,> 5000 nM,> 5000 nM,> 5000 nM,> 5000 nM,–,–,–,–,–,–
COc1ccc([C@@H]2c3cc4c(cc3C[C@H]3COC(=O)N32)OCO4)cc1OC,593 nM,> 5000 nM,> 5000 nM,755 nM,–,–,–,–,–,–
CCN1C(=O)[C@@H]2Cc3cc4c(cc3[C@@H](c3cc(OC)c(OC)c(OC)c3)N2C1=S)OCCO4,> 5000 nM,> 5000 nM,> 5000 nM,> 5000 nM,–,–,–,–,–,–
COc1ccc(/C=C\c2cc(OC)c(OC)c(OC)c2)cc1O [COMBRETASTATIN A4],11.2 nM,5.9 nM,6.8 nM,391 nM,Dose-Dependent Effect,49.9 nM,15.4 nM,Active,–,–
O=C1OC[C@@H]2Cc3cc4c(cc3[C@@H](c3ccncc3)N12)OCO4,> 5000 nM,> 5000 nM,> 5000 nM,> 5000 nM,–,–,–,–,–,–
COc1cc([C@@H]2c3cc4c(cc3C[C@H]3COC(=O)N32)OCO4)cc(OC)c1OC,20 nM,33.6 nM,16.6 nM,26.7 nM,–,–,–,–,–,–
COc1cc([C@@H]2c3cc4c(cc3C[C@H]3C(=O)NC(=O)N23)OCCO4)cc2c1OCO2,91.7 nM,36.2 nM,46.9 nM,74.8 nM,–,–,–,–,–,–
CCCN1CC(=O)N2[C@H](c3cc(OC)c(OC)c(OC)c3)c3cc4c(cc3C[C@H]2C1=O)OCCO4,> 5000 nM,> 5000 nM,> 5000 nM,> 5000 nM,–,–,–,–,–,–
COc1cc([C@@H]2c3cc4c(cc3C[C@H]3C(=O)N(C)C(=S)N23)OCO4)cc(OC)c1OC,> 5000 nM,> 5000 nM,> 5000 nM,> 5000 nM,–,–,–,–,–,–
COc1cc([C@@H]2c3cc4c(cc3C[C@H]3C(=O)NCC(=O)N23)OCCO4)cc(OC)c1OC,785 nM,1560 nM,3120 nM,749 nM,–,–,–,–,–,–
O=C1NC(=O)N2[C@H](c3cc(Cl)nc(Cl)c3)c3cc4c(cc3C[C@@H]12)OCCO4,424 nM,400 nM,533 nM,357 nM,–,–,–,–,–,–
COc1c(Br)cc([C@@H]2c3cc4c(cc3C[C@H]3COC(=O)N32)OCCO4)cc1Br,6.7 nM,4.3 nM,3.3 nM,2.4 nM,–,–,–,–,1.27 min,1370 mL/min/kg
COc1cc([C@@H]2c3cc4c(cc3C[C@H]3COC(=O)N32)OCCO4)cc(F)c1OC,13.4 nM,11.4 nM,10.1 nM,18.2 nM,–,–,–,–,–,–
